Tests used:
Hepatotoxicity [1] = system: Hepatotoxicity;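 on HepSE bilirubinemia: bilirubinemia hepatic side effect score drawn from the DILIps training data, a prediction system for drug-induced liver injury; call rule not given here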;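 on HepSE cholelithiasis: hepatic side effect score for cholelithiasis, drawn from the DILIps training data for predicting drug-induced liver injury; call rule not given here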;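 on HepSE cirrhosis: cirrhosis hepatic side effect score taken from the DILIps (drug-induced liver injury prediction) training set; call rule not given here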;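 on HepSE elevated liver function tests: hepatic side effect score for raised liver function tests, as recorded in the DILIps training set used for predicting drug-induced liver injury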; on HepSE hepatic failure: call rule not given here;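 on HepSE hepatomegaly: hepatic side effect score for hepatomegaly, taken from the training set of the DILIps drug-induced liver injury prediction system; call rule not given here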; on HepSE liver disease: call rule not given here
Hepatotoxicity [2] = system: Hepatotoxicity; remark: listed apart in the source;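 on HepSE bilirubinemia: bilirubinemia hepatic side effect score drawn from the DILIps training data, a prediction system for drug-induced liver injury; call rule not given here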;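 on HepSE cholelithiasis: hepatic side effect score for cholelithiasis, drawn from the DILIps training data for predicting drug-induced liver injury; call rule not given here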;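 on HepSE cirrhosis: cirrhosis hepatic side effect score taken from the DILIps (drug-induced liver injury prediction) training set; call rule not given here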;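 on HepSE elevated liver function tests: hepatic side effect score for raised liver function tests, as recorded in the DILIps training set used for predicting drug-induced liver injury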; on HepSE hepatic failure: call rule not given here;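 on HepSE hepatomegaly: hepatic side effect score for hepatomegaly, taken from the training set of the DILIps drug-induced liver injury prediction system; call rule not given here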; on HepSE liver disease: call rule not given here
Hepatotoxicity [3] = system: Hepatotoxicity; remark: listed apart in the source;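 on HepSE bilirubinemia: bilirubinemia hepatic side effect score drawn from the DILIps training data, a prediction system for drug-induced liver injury; call rule not given here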;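 on HepSE cholelithiasis: hepatic side effect score for cholelithiasis, drawn from the DILIps training data for predicting drug-induced liver injury; call rule not given here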;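 on HepSE cirrhosis: cirrhosis hepatic side effect score taken from the DILIps (drug-induced liver injury prediction) training set; call rule not given here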;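 on HepSE elevated liver function tests: hepatic side effect score for raised liver function tests, as recorded in the DILIps training set used for predicting drug-induced liver injury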; on HepSE hepatic failure: call rule not given here;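 on HepSE hepatomegaly: hepatic side effect score for hepatomegaly, taken from the training set of the DILIps drug-induced liver injury prediction system; call rule not given here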; on HepSE liver disease: call rule not given here
Hepatotoxicity [4] = system: Hepatotoxicity; remark: listed apart in the source;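 on HepSE bilirubinemia: bilirubinemia hepatic side effect score drawn from the DILIps training data, a prediction system for drug-induced liver injury; call rule not given here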;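 on HepSE cholelithiasis: hepatic side effect score for cholelithiasis, drawn from the DILIps training data for predicting drug-induced liver injury; call rule not given here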;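 on HepSE cirrhosis: cirrhosis hepatic side effect score taken from the DILIps (drug-induced liver injury prediction) training set; call rule not given here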;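 on HepSE elevated liver function tests: hepatic side effect score for raised liver function tests, as recorded in the DILIps training set used for predicting drug-induced liver injury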; on HepSE hepatic failure: call rule not given here;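 on HepSE hepatomegaly: hepatic side effect score for hepatomegaly, taken from the training set of the DILIps drug-induced liver injury prediction system; call rule not given here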; on HepSE liver disease: call rule not given here
Hepatotoxicity [5] = system: Hepatotoxicity; remark: listed apart in the source; on HepSE hepatic failure: call rule not given here
Hepatotoxicity [6] = system: Hepatotoxicity; remark: listed apart in the source; on HepSE hepatic failure: call rule not given here
Hepatotoxicity [7] = system: Hepatotoxicity; remark: listed apart in the source
Hepatotoxicity [8] = system: Hepatotoxicity; remark: listed apart in the source
Hepatotoxicity [9] = system: Hepatotoxicity; remark: listed apart in the source
Hepatotoxicity [10] = system: Hepatotoxicity; remark: listed apart in the source
Hepatotoxicity [11] = system: Hepatotoxicity; remark: listed apart in the source
Hepatotoxicity [12] = system: Hepatotoxicity; remark: listed apart in the source
Hepatotoxicity [13] = system: Hepatotoxicity; remark: listed apart in the source
Hepatotoxicity [14] = system: Hepatotoxicity; remark: listed apart in the source

| Compound | HepSE_bilirubinemia (Hepatotoxicity [1]) | HepSE_cholelithiasis (Hepatotoxicity [2]) | HepSE_hepatic failure (Hepatotoxicity [3]) | HepSE_hepatitis (Hepatotoxicity [4]) | HepSE_hepatomegaly (Hepatotoxicity [5]) | HepSE_hepatic necrosis (Hepatotoxicity [6]) | HepSE_cirrhosis (Hepatotoxicity [7]) | HepSE_liver fatty (Hepatotoxicity [8]) | HepSE_elevated liver function tests (Hepatotoxicity [9]) | HepSE_liver disease (Hepatotoxicity [10]) | HepSE_jaundice (Hepatotoxicity [11]) | HepSE_cholecystitis (Hepatotoxicity [12]) | HepSE_Combined Scores (Hepatotoxicity [13]) | HepSE_liver function tests abnormal (Hepatotoxicity [14]) |
| --- | --- | --- | --- | --- | --- | --- | --- | --- | --- | --- | --- | --- | --- | --- |
| COc1cc(CC2c3c(cc(OC)c(OC)c3OC)CC[N+]2(C)CCCOC(=O)CCC(=O)OCCC[N+]2(C)CCc3cc(OC)c(OC)c(OC)c3C2Cc2cc(OC)c(OC)c(OC)c2)cc(OC)c1OC (centres undefined) [DOXACURIUM] | 0 | 0 | 0 | 0 | 0 | 0 | 0 | 0 | 0 | 0 | 0 | 0 | 0 | 0 |
| CCN1CC(CCN2CCOCC2)C(c2ccccc2)(c2ccccc2)C1=O (centres undefined) [DOXAPRAM] | 0 | 0 | 0 | 0 | 0 | 0 | 0 | 0 | 0 | 0 | 0 | 0 | 0 | 0 |
| COc1cc2nc(N3CCN(C(=O)C4COc5ccccc5O4)CC3)nc(N)c2cc1OC (centres undefined) [DOXAZOSIN] | 0 | 1 | 0 | 1 | 0 | 0 | 0 | 0 | 0 | 0 | 1 | 0 | 4 | 1 |
| CN(C)CCC=C1c2ccccc2COc2ccccc21 [DOXEPIN] | 0 | 0 | 0 | 0 | 0 | 0 | 0 | 0 | 0 | 0 | 1 | 0 | 1 | 0 |
| COc1cccc2c1C(=O)c1c(O)c3c(c(O)c1C2=O)C[C@@](O)(C(=O)CO)C[C@@H]3O[C@H]1C[C@H](N)[C@H](O)[C@H](C)O1 [DOXORUBICIN] | 1 | 0 | 1 | 1 | 0 | 0 | 0 | 0 | 0 | 0 | 1 | 0 | 5 | 1 |
| Cc1cn([C@H]2C[C@H](O)[C@@H](CO)O2)c(=O)[nH]c1=O [DOXRIBTIMINE] | 0 | 0 | 0 | 1 | 0 | 0 | 0 | 0 | 0 | 0 | 0 | 0 | 1 | 0 |

From ChEMBL document CHEMBL1909294, “Translating clinical findings into knowledge in drug safety evaluation--drug induced liver injury prediction system (DILIps)” (PLoS Comput Biol, 2011)
